Test results taken from US7524871B2, “Thrombin inhibitors” (University of Ljubljana, Faculty of Pharmacy, priority 2001, dated 2009).
Read-outs that look alike come from different tables or passages of the source.

Columns and labels:
human thrombin = target: T1, human thrombin (Homo sapiens, UniProt P00734); assay: Enzyme assay for determination of the activity of thrombin inhibitors (chromogenic substrate S-2238); type: biochemical
T1 construct: Thrombin (human thrombin, 308 NIH units, Sigma); purchased Sigma
Experimental: I. Enzyme Assay for Determination of the Activity of Thrombin Inhibitors
Thrombin cleaves amide bonds in a synthetic chromogenic substrate whereby […] coloured p-nitroaniline (p-NA) is released. The amount of p-NA produced is directly proportionate to the absorbance measured at a wavelength of 405 nm using a spectrophotometer. When thrombin inhibitor is added, the amidolytic activity of the enzyme decreases. The potency of the inhibitor is expressed by the inhibition constant (Ki).
The stock solution is pipetted into 0.5 mL aliquots and stored at −70° C. Immediately before use a working solution of thrombin of […] is prepared with HBSA buffer. The final concentration of thrombin in a microtiter plate is 0.5 NIH units/mL.
1 mM substrate solution is prepared, pipetted into 0.5 mL aliquots and stored at −20° C. Before use, 160 and 80 μM substrate solutions of the substrate are prepared with distilled water.
(§1) HBSA buffer, pH 7.5: 10 mM Hepes buffer (HEPES, Sigma), 150 mM NaCl and 0.1% (w/v) bovine serum albumin (98% bovine serum albumin, Sigma) are dissolved in bidistilled water. The pH is adjusted with 0.1 M NaOH solution.
Working solutions (final concentrations within the range 10 to 100 μM) are prepared with distilled water.
Measurements are carried out in the microtiter plate. 50 μL HBSA buffer, 50 μL inhibitor solution of different concentrations (for control 50 μL HBSA buffer) and 50 μL of thrombin solution are pipetted into the wells of a microtiter plate. The plate is incubated at a temperature of 25° C. for 15 minutes. After incubation 50 μL of the chromogenic substrate is added and the microtiter plate is placed in the spectrophotometer (Tecan, Sunrise).
(§2) Each measurement is carried out in triplicate and the result is the averaged value of three measurements.
(§3) 4. Determination of the Inhibition Constant (Ki)
Initial velocities of the reaction in the presence and absence of the inhibitor are measured. The change in the absorbance in the time unit (v) is calculated from the initial, linear part of the reaction. For competitive inhibitors it holds that
[formula] and it follows that
[formula] I=inhibitor concentration, S=substrate concentration, Km=Michaelis constant, vo=initial velocity of the reaction in the absence of inhibitor, vi=initial velocity of the reaction in the presence of inhibitor.
Measurements are carried out with two concentrations of the inhibitor and two concentrations of the substrate.

Trypsin (bovine) = target: T2, Trypsin (bovine) (Bos taurus, UniProt P00760); assay: Determination of selectivity of the inhibitor activity against thrombin with respect to trypsin inhibition (chromogenic substrate S-2222); type: biochemical; details: for Ki: bovine trypsin 1 mU/mL, S-2222 100 and 50 μM, HBSA buffer pH 7.5; for Ki trypsin/ Ki thrombin: selectivity, ratio of Ki for trypsin to Ki for thrombin
T2 construct: purchased Sigma
T2 sequence (P00760 24-246): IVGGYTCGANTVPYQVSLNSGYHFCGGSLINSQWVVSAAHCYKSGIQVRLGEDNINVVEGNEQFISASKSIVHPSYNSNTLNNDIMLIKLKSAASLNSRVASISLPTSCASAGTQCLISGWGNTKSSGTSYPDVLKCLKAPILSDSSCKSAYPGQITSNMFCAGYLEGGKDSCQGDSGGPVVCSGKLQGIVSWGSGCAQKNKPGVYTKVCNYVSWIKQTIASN
Experimental: II. Determination of Selectivity of the Inhibitor Activity Against Thrombin with Respect to Trypsin Inhibition
The inhibitory activity against thrombin is determined as described above. Trypsin inhibition is measured in the same manner as in determination of inhibitory activity for thrombin except that a different chromogenic substrate is used. For both enzymes Ki is calculated. Selectivity of the inhibitor is expressed as a ratio of Ki for trypsin to Ki for thrombin.
Trypsin (bovine, 6000 BAEE Units/mg protein, Sigma): A stock solution of trypsin with the activity of 300 U/mL is prepared, pipetted into 0.2 mL aliquots and stored at −70° C. Immediately before use, the stock solution is thawed and a working solution of 4 mU/mL is prepared with HBSA buffer. The final trypsin activity in a microtiter plate is 1 mU/mL.
Before use the stock solution is thawed and 400 and 200 μM substrate solutions are prepared The final concentrations of the substrate in the reaction mixture are 100 and 50 μM.
as §1
Working solutions (final concentrations in the range from 10 to 600 μM) are prepared with distilled water.
as §2
The procedure is the same as the procedure described for determination of the inhibitory activity against thrombin. The concentrations of the reagents described for determination of the inhibitory activity with respect to trypsin are used.
as §3
It is determined in the same manner as determination of Ki for thrombin.
5. Determination of the Selectivity
Ki for thrombin and Ki for trypsin are determined. The selectivity is defined as the ratio: […]

[1] = human thrombin 0.5 NIH units/mL, S-2238 40 and 20 μM, HBSA buffer pH 7.5, 25° C., read-out: Ki thrombin

SMILES | Ki (human thrombin; [1]) [µM] | Ki (Trypsin (bovine)) [µM] | Ki trypsin/ Ki thrombin (Trypsin (bovine)) | Ki (human thrombin) [µM]
Cc1ccc(NS(=O)(=O)Cc2ccc(F)cc2Cl)c(=O)n1CC(=O)NCC1CCc2n[nH]cc2C1 (stereo not drawn) | 0.16 | > 300 | >1875 | –
Cc1ccc(NS(=O)(=O)Cc2ccc(F)cc2Cl)c(=O)n1CC(=O)NC1CCc2nc(N)sc2C1 (stereo not drawn) | – | 193 | 1097 | 0.16
Cc1ccc(NS(=O)(=O)Cc2cccc(C(F)(F)F)c2)c(=O)n1CC(=O)NC1CCc2nc(N)sc2C1 (stereo not drawn) | 0.65 | > 200 | >300 | –
Cc1ccc(NCCc2ccccc2)c(=O)n1CC(=O)NCC1CCc2n[nH]cc2C1 (stereo not drawn) | 0.82 | 421 | 526 | –
CCCCS(=O)(=O)Nc1ccc(C)n(CC(=O)NC2CCc3nc(N)sc3C2)c1=O (stereo not drawn) | 1.3 | 50 | 37 | –

Second part, led by results:

Ki (human thrombin; [1]) [µM] | Ki (Trypsin (bovine)) [µM] | Ki trypsin/ Ki thrombin (Trypsin (bovine)) | SMILES | Ki (human thrombin) [µM]
0.21 | 376 | 1790 | Cc1ccc(NS(=O)(=O)Cc2ccccc2)c(=O)n1CC(=O)NCC1CCc2n[nH]cc2C1 (stereo not drawn) | –
0.16 | 260 | 1625 | Cc1ccc(NS(=O)(=O)Cc2ccccc2)c(=O)n1CC(=O)NC1CCc2nc(N)sc2C1 (stereo not drawn) | –
0.69 | 147 | 213 | Cc1ccc(NCCc2ccccc2)c(=O)n1CC(=O)NC1CCc2nc(N)sc2C1 (stereo not drawn) | –
4.7 | 438 | 93 | Cc1ccc(NS(=O)(=O)Cc2ccccc2)c(=O)n1CC(=O)NC1CCc2n[nH]cc2C1 (stereo not drawn) | –
